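GI50 = concentration required for 50% inhibition of growth. TGI: total growth inhibition.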
Assays:
Assay in all cases: growth of human tumour cells (NCI), 384-well format
[1] = test system: SNB-19 CNS
[2] = test system: CAKI-1 renal
[3] = test system: SNB-75 CNS
[4] = test system: NCI-H226 lung
[5] = test system: OVCAR-8 ovarian
[6] = test system: HCT-15 colon
[7] = test system: RPMI-8226 leukemia
[8] = test system: ACHN renal
[9] = test system: MDA-MB-435 melanoma
[10] = test system: NCI-H23 lung
[11] = test system: SW-620 colon
[12] = test system: HS 578T breast
[13] = test system: SK-MEL-2 melanoma
[14] = test system: MDA-MB-468 breast
[15] = test system: SF-268 CNS
[16] = test system: OVCAR-4 ovarian
[17] = test system: HCT-116 colon
[18] = test system: HT29 colon
[19] = test system: LOX IMVI melanoma
[20] = test system: NCI-H522 lung
[21] = test system: HL-60(TB) leukemia
[22] = test system: UACC-257 melanoma
[23] = test system: U251 glioblastoma
[24] = test system: SK-OV-3 ovarian
[25] = test system: CCRF-CEM leukemia
[26] = test system: A498 renal
[27] = test system: MCF7 breast
[28] = test system: K-562 leukemia
[29] = test system: NCI-H460 NSCLC
[30] = test system: SN12C renal
[31] = test system: HOP-62 NSCLC
[32] = test system: SK-MEL-5 melanoma
[33] = test system: SF-295 CNS
[34] = test system: NCI/ADR-RES ovarian
[35] = test system: BT-549 breast
[36] = test system: TK-10 renal
[37] = test system: KM12 colon
[38] = test system: 786-0 renal
[39] = test system: SF-539 CNS
[40] = test system: HCC-2998 colon
[41] = test system: PC-3 prostate
[42] = test system: A549 NSCLC
[43] = test system: MOLT-4 leukemia
[44] = test system: EKVX NSCLC
[45] = test system: NCI-H322M lung
[46] = test system: RXF 393 renal
[47] = test system: IGROV1 ovarian
[48] = test system: M14 melanoma
[49] = test system: OVCAR-3 ovarian
[50] = test system: COLO 205 colon
[51] = test system: DU-145 prostate
[52] = test system: UACC-62 melanoma
[53] = test system: MALME-3M melanoma
[54] = test system: SK-MEL-28 melanoma
[55] = test system: HOP-92 NSCLC

CCOC(=O)c1cc(/C=C/c2ccc(Cl)cc2Cl)on1
GI50 [1]: 3100 nM | TGI [1]: 8170 nM | GI50 [2]: 1770 nM | TGI [2]: 3910 nM | GI50 [3]: 3200 nM | TGI [3]: 6120 nM | GI50 [4]: 1960 nM | TGI [4]: 3830 nM | GI50 [5]: 649 nM | TGI [5]: 11000 nM | GI50 [6]: 1360 nM | TGI [6]: 4340 nM | GI50 [7]: 471 nM | TGI [7]: 1250 nM | GI50 [8]: 1860 nM | TGI [8]: 3390 nM | GI50 [9]: 3410 nM | TGI [9]: 11300 nM | GI50 [10]: 2340 nM | TGI [10]: 5290 nM | GI50 [11]: 1360 nM | TGI [11]: 3020 nM | GI50 [12]: 1970 nM | TGI [12]: 3540 nM | GI50 [13]: 2120 nM | TGI [13]: 4350 nM | GI50 [14]: 2280 nM | TGI [14]: 3940 nM | GI50 [15]: 4090 nM | TGI [15]: 13500 nM | GI50 [16]: 2630 nM | TGI [16]: 7190 nM | GI50 [17]: 740 nM | TGI [17]: 2040 nM | GI50 [18]: 1920 nM | TGI [18]: 4220 nM | GI50 [19]: 1910 nM | TGI [19]: 3630 nM | GI50 [20]: 2020 nM | TGI [20]: 3510 nM | GI50 [21]: 818 nM | TGI [21]: 2040 nM | GI50 [22]: 2950 nM | TGI [22]: 5650 nM | GI50 [23]: 1270 nM | TGI [23]: 3300 nM | GI50 [24]: 2010 nM | TGI [24]: 4150 nM | GI50 [25]: 1130 nM | TGI [25]: 2370 nM | GI50 [26]: 1850 nM | TGI [26]: 3330 nM | GI50 [27]: 662 nM | TGI [27]: 2810 nM | GI50 [28]: 10700 nM | TGI [28]: 30800 nM | GI50 [29]: 1220 nM | TGI [29]: 2590 nM | GI50 [30]: 1810 nM | TGI [30]: 3320 nM | GI50 [31]: 469 nM | TGI [31]: 2830 nM | GI50 [32]: 1770 nM | TGI [32]: 3530 nM | GI50 [33]: 2470 nM | TGI [33]: 5300 nM | GI50 [34]: 1840 nM | TGI [34]: 3300 nM | GI50 [35]: 2110 nM | TGI [35]: 4350 nM | GI50 [36]: 2370 nM | TGI [36]: 4710 nM | GI50 [37]: 932 nM | TGI [37]: 3930 nM | GI50 [38]: 1840 nM | TGI [38]: 3350 nM | GI50 [39]: 945 nM | TGI [39]: 2190 nM | GI50 [40]: 1960 nM | TGI [40]: 3970 nM | GI50 [41]: 1970 nM | TGI [41]: 4050 nM | GI50 [42]: 2440 nM | TGI [42]: 6100 nM | GI50 [43]: 1030 nM | TGI [43]: 2210 nM | GI50 [44]: 2700 nM | TGI [44]: 8840 nM | GI50 [45]: 4040 nM | TGI [45]: 14100 nM | GI50 [46]: 1990 nM | TGI [46]: 3460 nM | GI50 [47]: 2090 nM | TGI [47]: 4340 nM | GI50 [48]: 3270 nM | TGI [48]: 8820 nM | GI50 [49]: 1850 nM | TGI [49]: 3550 nM | GI50 [50]: 2720 nM | TGI [50]: 6540 nM | GI50 [51]: 4460 nM | TGI [51]: > 100000 nM | GI50 [52]: 2080 nM | TGI [52]: 4260 nM | GI50 [53]: 2390 nM | TGI [53]: 4050 nM | GI50 [54]: 2420 nM | TGI [54]: 4390 nM

CN(C)CCN(C)CC(C)(C)C(=O)/C=C/c1ccc(Cl)c(Cl)c1
GI50 [1]: 1750 nM | TGI [1]: 3170 nM | GI50 [2]: 1080 nM | TGI [2]: 2290 nM | GI50 [3]: 2020 nM | TGI [3]: 3450 nM | GI50 [4]: 1470 nM | TGI [4]: 2790 nM | GI50 [5]: 1300 nM | TGI [5]: 2590 nM | GI50 [6]: 1230 nM | TGI [6]: 2530 nM | GI50 [7]: 319 nM | TGI [7]: 667 nM | GI50 [8]: 1570 nM | TGI [8]: 2940 nM | GI50 [9]: 1360 nM | TGI [9]: 2650 nM | GI50 [10]: 1470 nM | TGI [10]: 2840 nM | GI50 [11]: 1340 nM | TGI [11]: 2650 nM | GI50 [12]: 2000 nM | TGI [12]: 3440 nM | GI50 [13]: 292 nM | TGI [13]: 644 nM | GI50 [14]: 510 nM | TGI [14]: 902 nM | GI50 [15]: 1930 nM | TGI [15]: 3350 nM | GI50 [16]: 1510 nM | TGI [16]: 2850 nM | GI50 [17]: 1270 nM | TGI [17]: 2590 nM | GI50 [18]: 1440 nM | TGI [18]: 2990 nM | GI50 [19]: 1640 nM | TGI [19]: 3020 nM | GI50 [20]: 1330 nM | TGI [20]: 2620 nM | GI50 [21]: 161 nM | TGI [21]: 309 nM | GI50 [22]: 1450 nM | TGI [22]: 2770 nM | GI50 [23]: 1520 nM | TGI [23]: 2870 nM | GI50 [24]: 1280 nM | TGI [24]: 2550 nM | GI50 [25]: 216 nM | TGI [25]: 479 nM | GI50 [26]: 1450 nM | TGI [26]: 2770 nM | GI50 [27]: 796 nM | TGI [27]: 2050 nM | GI50 [28]: 1820 nM | TGI [28]: 3250 nM | GI50 [29]: 1410 nM | TGI [29]: 2780 nM | GI50 [30]: 1320 nM | TGI [30]: 2600 nM | GI50 [31]: 1720 nM | TGI [31]: 3100 nM | GI50 [32]: 1190 nM | TGI [32]: 2430 nM | GI50 [33]: 1560 nM | TGI [33]: 2940 nM | GI50 [34]: 1570 nM | TGI [34]: 2920 nM | GI50 [35]: 1680 nM | TGI [35]: 3060 nM | GI50 [55]: 1090 nM | TGI [55]: 2290 nM | GI50 [36]: 1440 nM | TGI [36]: 2750 nM | GI50 [37]: 810 nM | TGI [37]: 2060 nM | GI50 [38]: 1460 nM | TGI [38]: 2790 nM | GI50 [39]: 1340 nM | TGI [39]: 2630 nM | GI50 [40]: 1500 nM | TGI [40]: 2840 nM | GI50 [41]: 1510 nM | TGI [41]: 2860 nM | GI50 [42]: 1720 nM | TGI [42]: 3130 nM | GI50 [43]: 215 nM | TGI [43]: 459 nM | GI50 [44]: 1650 nM | TGI [44]: 3080 nM | GI50 [45]: 1310 nM | TGI [45]: 2600 nM | GI50 [46]: 1080 nM | TGI [46]: 2270 nM | GI50 [47]: 1480 nM | TGI [47]: 2810 nM | GI50 [48]: 1690 nM | TGI [48]: 3080 nM | GI50 [49]: 1350 nM | TGI [49]: 2640 nM | GI50 [50]: 1600 nM | TGI [50]: 2980 nM | GI50 [51]: 1600 nM | TGI [51]: 3000 nM | GI50 [52]: 1410 nM | TGI [52]: 2720 nM | GI50 [53]: 2050 nM | TGI [53]: 3490 nM | GI50 [54]: 1890 nM | TGI [54]: 3310 nM

From PubChem BioAssay (NCI)
